Measured values reported in patent US20110142802A1, “FUNGICIDAL COMPOSITIONS” (SYNGENTA CROP PROTECTION, INC., priority 2008, published 2011).
Values joined by “and” are separate entries in the source; they are usually repeats but may differ in a detail not shown here. Equal values may be shown once.

Assays:
[1] = system: Alternaria solani (ALTESO); experiment: Growth inhibition of Alternaria solani in nutrient broth, 96-well microtiter plate, photometric; format: cell-based; details: 3 days
From the text: A synergistic effect exists whenever the action of an active ingredient combination is greater than the sum of the actions of the individual components. The action to be expected E for a given active ingredient combination obeys the so-called COLBY formula and can be calculated as follows (COLBY, S. R. “Calculating synergistic and antagonistic responses of herbicide combination”. Weeds, Vol. 15, pages 20-22; 1967): ppm=milligrams of active ingredient (=a.i.) per liter of spray mixture X=% action by active ingredient A) using p ppm of active ingredient Y=% action by active ingredient B) using q ppm of active ingredient. According to COLBY, the expected (additive) action of active ingredients A)+B) using p+q ppm of active ingredient is If the action actually observed (O) is greater than the expected action (E), then the action of the combination is super-additive, i.e. there is a synergistic effect. In mathematical terms, synergism corresponds to a positive value for the difference of (O-E). In the case of purely complementary addition of activities (expected activity), said difference (O-E) is zero. A negative value of said difference (O-E) signals a loss of activity compared to the expected activity. Alternaria solani ([…]): Conidia harvested from a freshly grown colony of the fungus are directly mixed into nutrient broth (PDB potato dextrose broth). After placing a (DMSO) solution of the test compounds into a microtiter plate (96-well format) the nutrient broth containing the fungal spores is added.

[2] = system: Mycosphaerella graminicola (Septoria tritici; SEPTTR); experiment: Growth inhibition of Mycosphaerella graminicola in nutrient broth, 96-well microtiter plate, photometric; format: cell-based; details: 4 days
From the text: A synergistic effect exists whenever the action of an active ingredient combination is greater than the sum of the actions of the individual components. The action to be expected E for a given active ingredient combination obeys the so-called COLBY formula and can be calculated as follows (COLBY, S. R. “Calculating synergistic and antagonistic responses of herbicide combination”. Weeds, Vol. 15, pages 20-22; 1967): ppm=milligrams of active ingredient (=a.i.) per liter of spray mixture X=% action by active ingredient A) using p ppm of active ingredient Y=% action by active ingredient B) using q ppm of active ingredient. According to COLBY, the expected (additive) action of active ingredients A)+B) using p+q ppm of active ingredient is If the action actually observed (O) is greater than the expected action (E), then the action of the combination is super-additive, i.e. there is a synergistic effect. In mathematical terms, synergism corresponds to a positive value for the difference of (O-E). In the case of purely complementary addition of activities (expected activity), said difference (O-E) is zero. A negative value of said difference (O-E) signals a loss of activity compared to the expected activity. Mycosphaerella graminicola (Septoria tritici; […]): Conidia of the fungus from cryogenic storage are directly mixed into nutrient broth (PDB potato dextrose broth). After placing a (DMSO) solution of the test compounds into a microtiter plate (96-well format) the nutrient broth containing the fungal spores is added.

[3] = system: Pyrenophora teres (PYRNTE); experiment: Growth inhibition of Pyrenophora teres in nutrient broth, 96-well microtiter plate, photometric; format: cell-based; details: 3 days
From the text: A synergistic effect exists whenever the action of an active ingredient combination is greater than the sum of the actions of the individual components. The action to be expected E for a given active ingredient combination obeys the so-called COLBY formula and can be calculated as follows (COLBY, S. R. “Calculating synergistic and antagonistic responses of herbicide combination”. Weeds, Vol. 15, pages 20-22; 1967): ppm=milligrams of active ingredient (=a.i.) per liter of spray mixture X=% action by active ingredient A) using p ppm of active ingredient Y=% action by active ingredient B) using q ppm of active ingredient. According to COLBY, the expected (additive) action of active ingredients A)+B) using p+q ppm of active ingredient is If the action actually observed (O) is greater than the expected action (E), then the action of the combination is super-additive, i.e. there is a synergistic effect. In mathematical terms, synergism corresponds to a positive value for the difference of (O-E). In the case of purely complementary addition of activities (expected activity), said difference (O-E) is zero. A negative value of said difference (O-E) signals a loss of activity compared to the expected activity. Pyrenophora teres ([…]): Conidia of the fungus from cryogenic storage are directly mixed into nutrient broth (PDB potato dextrose broth). After placing a (DMSO) solution of the test compounds into a microtiter plate (96-well format) the nutrient broth containing the fungal spores is added.

[4] = system: Mycosphaerella arachidis (Cercospora arachidicola; MYCOAR); experiment: Growth inhibition of Mycosphaerella arachidis in nutrient broth, 96-well microtiter plate, photometric at 620 nm; format: cell-based; details: 8 days
From the text: A synergistic effect exists whenever the action of an active ingredient combination is greater than the sum of the actions of the individual components. The action to be expected E for a given active ingredient combination obeys the so-called COLBY formula and can be calculated as follows (COLBY, S. R. “Calculating synergistic and antagonistic responses of herbicide combination”. Weeds, Vol. 15, pages 20-22; 1967): ppm=milligrams of active ingredient (=a.i.) per liter of spray mixture X=% action by active ingredient A) using p ppm of active ingredient Y=% action by active ingredient B) using q ppm of active ingredient. According to COLBY, the expected (additive) action of active ingredients A)+B) using p+q ppm of active ingredient is If the action actually observed (O) is greater than the expected action (E), then the action of the combination is super-additive, i.e. there is a synergistic effect. In mathematical terms, synergism corresponds to a positive value for the difference of (O-E). In the case of purely complementary addition of activities (expected activity), said difference (O-E) is zero. A negative value of said difference (O-E) signals a loss of activity compared to the expected activity. Mycosphaerella arachidis (Cercospora arachidicola; MYCOAR): Conidia of the fungus from cryogenic storage are directly mixed into nutrient broth (PDB potato dextrose broth). After placing a (DMSO) solution of the test compounds into a microtiter plate (96-well format) the nutrient broth containing the fungal spores is added.

[5] = single active ingredient 0.0625 mg/L (ppm ai)
[6] = single active ingredient 0.125 mg/L (ppm ai)
[7] = single active ingredient 0.25 mg/L (ppm ai)
[8] = single active ingredient 0.5 mg/L (ppm ai)
[9] = single active ingredient 0.0039 mg/L (ppm ai)
[10] = single active ingredient 0.0078 mg/L (ppm ai)
[11] = single active ingredient 0.0156 mg/L (ppm ai)
[12] = single active ingredient 0.0313 mg/L (ppm ai)

Fc1ccc([C@]2(Cn3cncn3)O[C@H]2c2ccccc2Cl)cc1 (racemic) [Epoxiconazole, epoxiconazole]
Observed control in % (% Cobs) [1, 5]: 0.0% | Observed control in % (% Cobs) [1, 6]: 24.3% | Observed control in % (% Cobs) [1, 7]: 28.9% | Observed control in % (% Cobs) [2, 5]: 6.8% | Observed control in % (% Cobs) [2, 6]: 18.0% | Observed control in % (% Cobs) [2, 7]: 36.8% | Observed control in % (% Cobs) [2, 8]: 51.8%

CC(C1CC1)C(O)(Cn1cncn1)c1ccc(Cl)cc1 (centres unmarked) [Cyproconazole, cyproconazole]
Observed control in % (% Cobs) [3, 5]: 0.0% | Observed control in % (% Cobs) [3, 6]: 0.0% | Observed control in % (% Cobs) [3, 7]: 15.1% | Observed control in % (% Cobs) [2, 9]: 2.3% | Observed control in % (% Cobs) [2, 10]: 2.8% | Observed control in % (% Cobs) [2, 11]: 4.7% | Observed control in % (% Cobs) [2, 12]: 1.9% | Observed control in % (% Cobs) [2, 5]: 0.6%

OC(Cc1ccccc1Cl)(Cn1nc[nH]c1=S)C1(Cl)CC1 (centres unmarked) [Prothioconazole, prothioconazole]
Observed control in % (% Cobs) [3, 5]: 28.9% | Observed control in % (% Cobs) [3, 6]: 50.1% | Observed control in % (% Cobs) [3, 7]: 66.6% | Observed control in % (% Cobs) [4, 11]: 22.0% | Observed control in % (% Cobs) [4, 12]: 59.1%

CN1COCN(Cc2cnc(Cl)s2)/C1=N\[N+](=O)[O-] [Thiomethoxam, thiamethoxam]
Observed control in % (% Cobs) [3, 5]: 0.0% | Observed control in % (% Cobs) [3, 6]: 0.0% | Observed control in % (% Cobs) [3, 7]: 0.0% | Observed control in % (% Cobs) [2, 9]: 1.8% | Observed control in % (% Cobs) [2, 10]: 1.6% | Observed control in % (% Cobs) [2, 11]: 0.0% | Observed control in % (% Cobs) [2, 12]: 2.9% | Observed control in % (% Cobs) [2, 5]: 0.0%

N#Cc1c(Cl)c(Cl)c(Cl)c(C#N)c1Cl [Chlorothalonil, chlorothalonil]
Observed control in % (% Cobs) [4, 12]: 7.6% | Observed control in % (% Cobs) [4, 5]: 8.2% | Observed control in % (% Cobs) [4, 6]: 9.9% | Observed control in % (% Cobs) [2, 9]: 3.0% | Observed control in % (% Cobs) [2, 10]: 0.0% | Observed control in % (% Cobs) [2, 11]: 0.7% | Observed control in % (% Cobs) [2, 12]: 0.0%

CC1COC(Cn2cncn2)(c2ccc(Oc3ccc(Cl)cc3)cc2Cl)O1 (centres unmarked) [Difenoconazole, difenoconazole]
Observed control in % (% Cobs) [4, 11]: 66.5% | Observed control in % (% Cobs) [1, 5]: 37.6% | Observed control in % (% Cobs) [1, 6]: 36.9%

CO/C=C(/C(=O)OC)c1ccccc1Oc1cc(Oc2ccccc2C#N)ncn1 [Azoxystrobin, azoxystrobin]
Observed control in % (% Cobs) [4, 12]: 44.8% | Observed control in % (% Cobs) [4, 5]: 76.4%

mancozeb
Observed control in % (% Cobs) [1, 7]: 0.7%

Cc1nnc(Cl)c(-c2c(F)cccc2Cl)c1-c1ccc(Cl)nc1 [Compound A-1.2, 3-chloro-5-(6-chloro-pyridin-3-yl)-6-methyl-4-(2-chloro-6-fluoro-phenyl)-pyridazine]
melting point: 166 to 167 °C

Cc1cc(C2CC2)nc(Nc2ccccc2)n1 [Cyprodinil, cyprodinil]
Observed control in % (% Cobs) [3, 5]: 23.8% | Observed control in % (% Cobs) [3, 6]: 45.1%

COc1nnc(C)c(-c2ccc(Cl)nc2)c1-c1c(F)cc(F)cc1F [Compound A-1.3, 4-(6-chloro-pyridin-3-yl)-6-methoxy-3-methyl-5-(2,4,6-trifluoro-phenyl)-pyridazine]
melting point: 123 to 124 °C

Cc1nnc(Cl)c(-c2c(F)cc(F)cc2F)c1-c1ccc(Cl)nc1 [Compound A-1.1, 3-chloro-5-(6-chloro-pyridin-3yl)-6-methyl-4-(2,4,6-trifluoro-phenyl)-pyridazine]
Observed control in % (% Cobs) [4, 12]: 6.7% | Observed control in % (% Cobs) [4, 5]: 3.5% and 5.1% | Observed control in % (% Cobs) [4, 7]: 51.3% and 56.5% | Observed control in % (% Cobs) [1, 7]: 13.3% and 7.0% | Observed control in % (% Cobs) [1, 8]: 28.4% and 39.9% | Observed control in % (% Cobs) ([1]; single active ingredient 1.0 mg/L (ppm ai)): 38.8% | melting point: 182 to 183 °C | Observed control in % (% Cobs) [2, 11]: 1.4% and 0.3% and 1.6% and 3.4% | Observed control in % (% Cobs) [2, 12]: 3.7% and 5.3% and 6.3% | Observed control in % (% Cobs) [2, 5]: 14.9% and 13.0% and 15.1% and 13.7% | Observed control in % (% Cobs) [2, 6]: 59.1% and 67.2% and 58.5% and 80.1%
